Results as given in PMC4063695, “Design of Embedded-Hybrid Antimicrobial Peptides with Enhanced Cell Selectivity and Anti-Biofilm Activity” (PLoS ONE, 2014).
No end group written: not given here.

Columns and labels:
E. coli ATCC25922 [1] = experiment: MIC after treatment with serum, enzymes and heat; format: cell-based, Escherichia coli; conditions: E. coli ATCC25922
From the text: (§1) E. coli ATCC25922, P. aeruginosa ATCC27853, S. aureus ATCC29213, S. epidermidis ATCC12228, S. faecalis ATCC29212 and B. subtilis CMCC63501 were obtained from the College of Veterinary Medicine, Northeast Agricultural University (Harbin, China), E. coli K88, E. coli CVCC1515 and P. aeruginosa ATCC15442 were bestowed by Prof. J.H. Wang (Gene Engineering Laboratory, Feed Research Institute, Chinese Academy of Agricultural Sciences Beijing, China) and E. coli UB1005 was kindly provided by Prof. Q.S. Qi (State Key Laboratory of Microbial Technology, Shandong University, China). […] Briefly, 50 µl of approximate 0.5–1 × 10^6 colony forming units (CFU)/ml of cells were diluted in Mueller-Hinton broth and distributed to 96-well plate, 50 µl of twofold peptides were added and the plates was incubated at 37°C for 18–24 h. The MIC values were calculated as the lowest peptide concentration that prevented visible turbidity and negative control of the pure broth without microbes. The tests were performed at least three times in duplicate.
(§2) The stability of peptides was tested in the MIC assay in different environments, including salt sensitivity, human serum, thermal stability and susceptibility to enzymes. For salt sensitivity, 0.5–1 × 10^6 CFU/ml of P. aeruginosa ATCC27853 and E. coli ATCC25922 were treated with peptides, while different salts were added to MHB, and the final concentrations of physiological salts were as follows: 150 mM NaCl, 4.5 mM KCl, 1 mM MgCl2, 6 µM NH4Cl, 8 µM ZnCl2, 4 µM FeCl3 and […] [33]. Except salt sensitivity, only E. coli ATCC25922 was treated with peptides. […] For testing peptide sensitivity to the proteolytic enzymes, the peptides were incubated in advance at 37°C for 1 h with a 1 mg/ml final concentration of the proteolytic enzymes (trypsin, pepsin, papain and proteinase K). For testing thermal stability, incubation occurred at 100°C for 1 h. After these treatments, the procedures were same as MIC assay described above.

[2] = test system: Gram-negative and Gram-positive strains; experiment: MIC over all tested strains (range, geometric mean); format: cell-based; parameters: GM (geometric mean of MIC values from all microbial strains): unit not given here; conditions: for GM (geometric mean of MIC values from all microbial strains): all strains of Table 2
From the text: as §1

E. coli UB1005 [3] = experiment: Cytoplasmic membrane electrical potential, diSC3-5; format: cell-based, Escherichia coli; conditions: diSC3-5 release over 600 s
Procedure: Peptides could alter the electrical potential of cytoplasmic membrane, and this potential that was measured by using E. coli UB1005 cells and diSC3-5 (Sigma), a membrane potential-sensitive fluorescent dye, as previously described, [35]. E. coli UB1005 was cultured to logarithmic phase in MHB, harvested by centrifugation, washed twice with buffer (5 mM of HEPES and 20 mM of glucose, pH 7.4) and resuspended to an OD600 of 0.05 in the identical buffer. The dye (diSC3-5) was added to above buffer at a final concentration of 0.4 µM. And the bacteria were incubated to take up the dye for 90 min. KCl was added to a final concentration of 0.1 M for equilibrating K^+ concentration between extracellular and intracellular environment, and then the bacteria were incubated at room temperature for 10 min. The cell suspension (2 ml) was placed in a 1-cm cuvette, and the peptides were added to different concentrations. The fluorescence intensity changes were monitored by using an F-4500 fluorescence spectrophotometer (Hitachi, Japan) with an excitation wavelength of 622 nm and an emission wavelength of 670 nm.

E. coli ATCC25922 [4] = experiment: MIC in the presence of physiological salts; format: cell-based, Escherichia coli; parameters: unit not given here
From the text: as §1, §2

P. aeruginosa ATCC27853 [5] = experiment: MIC in the presence of physiological salts; format: cell-based, Pseudomonas aeruginosa; parameters: unit not given here
From the text: as §1, §2

[6] = test system: human red blood cells (hRBC); experiment: Hemolytic activity; format: cell-based; conditions: minimum concentration that caused 5% hemolysis of hRBC (footnote); 1% hRBC in PBS pH 7.4, 1 h, 37°C, OD 492 nm
Procedure: The amount of released hemoglobin by the lysis of erythrocytes was measured for hemolytic activity of peptides. Human erythrocytes were obtained from a healthy donor with written informed consent. The experimental protocol was reviewed and approved by the ethics committee of the Northeast Agricultural University Hospital. The measurement was based on a previously described method. The fresh hRBCs were washed three times by centrifugation (1000 g, 5 min, 4°C) in PBS (pH 7.4), and then resuspended in PBS to obtain the erythrocyte with a dilution of approximately 1% (v/v). Then, 50 µL of hRBCs solution was incubated with 50 µL of different concentrations of the peptides dissolved in PBS for 1 h at 37°C, before centrifugation (1000 g, 5 min, 4°C) again. The absorbance of the supernatants was measured at optical density (OD) 492 nm. […] The control samples for 0% and 100% hemolysis consisted of hRBCs in PBS (Ablank) only and in 0.1% Triton X-100 (Atriton), respectively. The percentage of hemolysis was calculated according to the following equation: [drawing 3]

P. aeruginosa variant 1 = conditions: P. aeruginosa variant 1, obtained by step-wise culture with ciprofloxacin hydrochloride; MHB, 37°C, 18-24 h
From the text: as §1

P. aeruginosa variant 2 = conditions: P. aeruginosa variant 2, obtained by step-wise culture with gentamicin; MHB, 37°C, 18-24 h
From the text: as §1

E. coli CVCC1515 = conditions: E. coli CVCC1515; MHB, 37°C, 18-24 h; at least three times in duplicate
From the text: as §1

E. coli K88 = conditions: MHB, 37°C, 18-24 h, at least three times in duplicate
From the text: as §1

S.faecalis ATCC29212 = conditions: S.faecalis ATCC29212; MHB, 37°C, 18-24 h; at least three times in duplicate
From the text: as §1

S.aureus ATCC29213 = conditions: S.aureus ATCC29213; MHB, 37°C, 18-24 h; at least three times in duplicate
From the text: as §1

P. aeruginosa ATCC27853 [7] = conditions: P. aeruginosa ATCC27853; MHB, 37°C, 18-24 h; at least three times in duplicate
From the text: as §1

E. coli ATCC25922 [8] = conditions: E. coli ATCC25922; MHB, 37°C, 18-24 h; at least three times in duplicate
From the text: as §1

B. subtilis CMCC63501 = conditions: B. subtilis CMCC63501; MHB, 37°C, 18-24 h; at least three times in duplicate
From the text: as §1

E. coli UB1005 [9] = conditions: E. coli UB1005; MHB, 37°C, 18-24 h; at least three times in duplicate
From the text: as §1

P. aeruginosa ATCC15442 = conditions: P. aeruginosa ATCC15442; MHB, 37°C, 18-24 h; at least three times in duplicate
From the text: as §1

S. pullorum C79-13 = conditions: S. pullorum C79-13; MHB, 37°C, 18-24 h; at least three times in duplicate
From the text: as §1

S.epidermidis ATCC12228 = conditions: S.epidermidis ATCC12228; MHB, 37°C, 18-24 h; at least three times in duplicate
From the text: as §1

S. typhimurium ATCC14028 = conditions: S. typhimurium ATCC14028; MHB, 37°C, 18-24 h; at least three times in duplicate
From the text: as §1

[10] = all kinds of salts in physiological concentrations

CC[C@H](C)[C@H](NC(=O)CN)C(=O)NCC(=O)N[C@@H](C)C(=O)N[C@H](C(=O)N[C@@H](CC(C)C)C(=O)N[C@@H](CCCCN)C(=O)N[C@H](C(=O)N[C@@H](CC(C)C)C(=O)N[C@H](C(=O)N[C@H](C(=O)NCC(=O)N[C@@H](CC(C)C)C(=O)N1CCC[C@H]1C(=O)N[C@@H](C)C(=O)N[C@@H](CC(C)C)C(=O)N[C@H](C(=O)N[C@@H](CO)C(=O)N[C@@H](Cc1c[nH]c2ccccc12)C(=O)N[C@H](C(=O)N[C@@H](CCCCN)C(=O)N[C@@H](CCCNC(=N)N)C(=O)N[C@@H](CCCCN)C(=O)N[C@@H](CCCNC(=N)N)C(=O)N[C@@H](CCC(N)=O)C(=O)N[C@@H](CCC(N)=O)C(N)=O)[C@@H](C)CC)[C@@H](C)CC)[C@@H](C)O)[C@@H](C)O)C(C)C)C(C)C [ME26, melittin, reference compound]
MIC, Serum 25% (E. coli ATCC25922 [1]; 25% human serum in MHB): 8 | MIC, Serum 50% (E. coli ATCC25922 [1]; 50% human serum in MHB): 8 | MIC, Heat 100°C (E. coli ATCC25922 [1]; peptide incubated at 100°C for 1 h): 2 | MIC, Enzymes Caroid (E. coli ATCC25922 [1]; peptide pre-incubated 1 h at 37°C with 1 mg/ml enzyme (method names papain)): >128 | MIC, Enzymes Pepsin (E. coli ATCC25922 [1]; peptide pre-incubated 1 h at 37°C with 1 mg/ml pepsin): >128 | MIC, Enzymes Proteinase K (E. coli ATCC25922 [1]; peptide pre-incubated 1 h at 37°C with 1 mg/ml proteinase K): 32 | MIC, Enzymes Trypsin (E. coli ATCC25922 [1]; peptide pre-incubated 1 h at 37°C with 1 mg/ml trypsin): >128 | GM (geometric mean of MIC values from all microbial strains) [2]: 2.2 | cytoplasmic membrane depolarization (in words) (E. coli UB1005 [3]): able to permeabilize the bacterial cell membrane even at a lower concentration than their MICs | MIC, FeCl3 (E. coli ATCC25922 [4]; 4 µM FeCl3 in MHB): 2 | MIC, NH4Cl (E. coli ATCC25922 [4]; 6 µM NH4Cl in MHB): 2 | MIC, ZnCl2 (E. coli ATCC25922 [4]; 8 µM ZnCl2 in MHB): 4 | MIC, MgCl2 (E. coli ATCC25922 [4]; 1 mM MgCl2 in MHB): 4 | MIC, KCl (E. coli ATCC25922 [4]; 4.5 mM KCl in MHB): 2 | MIC, NaCl (E. coli ATCC25922 [4]; 150 mM NaCl in MHB): 4 | MIC, Mix (E. coli ATCC25922 [4]; [10]): 4 | MIC, CaCl2 (E. coli ATCC25922 [4]; in MHB): 2 | MIC, Control (E. coli ATCC25922 [4]; no added salts, unit not given): 2 | MIC, CaCl2 (P. aeruginosa ATCC27853 [5]; 2.5 µM CaCl2 in MHB): 2 | MIC, FeCl3 (P. aeruginosa ATCC27853 [5]; 4 µM FeCl3 in MHB): 2 | MIC, NH4Cl (P. aeruginosa ATCC27853 [5]; 6 µM NH4Cl in MHB): 2 | MIC, ZnCl2 (P. aeruginosa ATCC27853 [5]; 8 µM ZnCl2 in MHB): 2 | MIC, MgCl2 (P. aeruginosa ATCC27853 [5]; 1 mM MgCl2 in MHB): 8 | MIC, KCl (P. aeruginosa ATCC27853 [5]; 4.5 mM KCl in MHB): 2 | MIC, NaCl (P. aeruginosa ATCC27853 [5]; 150 mM NaCl in MHB): 2 | MIC, Mix (P. aeruginosa ATCC27853 [5]; [10]): 16 | MIC, Control (P. aeruginosa ATCC27853 [5]; no added salts, unit not given): 2

RKKTRKR-NH2 [RR7]
MHC [6]: >256 µM | antimicrobial activity (in words) ([2]; Gram-negative and Gram-positive strains): poor antimicrobial activity | GM (geometric mean of MIC values from all microbial strains) [2]: 256 | MIC (P. aeruginosa variant 1): >256 µM | MIC (P. aeruginosa variant 2): >256 µM | MIC (E. coli CVCC1515): >256 µM | MIC (E. coli K88): >256 µM | MIC (S.faecalis ATCC29212): >256 µM | MIC (S.aureus ATCC29213): >256 µM | MIC (P. aeruginosa ATCC27853 [7]): >256 µM | MIC (E. coli ATCC25922 [8]): >256 µM | MIC (B. subtilis CMCC63501): >256 µM | MIC (E. coli UB1005 [9]): >256 µM | MIC (P. aeruginosa ATCC15442): >256 µM | MIC (S. pullorum C79-13): >256 µM | MIC (S.epidermidis ATCC12228): >256 µM | MIC (S. typhimurium ATCC14028): >256 µM
